Consider 15 compounds from PubChem BioAssay (NCI).

Test systems include HCC-2998 colon; HT29 colon; K-562 leukemia; NCI-H460 lung; RPMI-8226 leukemia; SF-268 CNS; SK-MEL-28 melanoma; SK-MEL-5 melanoma; SK-OV-3 ovarian; SN12C renal.
Holding throughout (assay): growth of human tumour cells (NCI), 48 h

Molecules are shown by their SMILES.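 How tested: cells in 96-well plates exposed to compound for 48 hours at five concentrations. GI50 = concentration required for 50% inhibition of growth. TGI marks complete inhibition of growth.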 Where only a bound is given, the exact number is not on record here.

With `C=C(C(=O)C(=O)Oc1ccc(Cl)cc1)C(=O)c1ccc(C)cc1`, the TGI was 76 µM with HCC-2998 colon; over 100 µM in the assay on HT29 colon; over 100 µM in the assay with K-562 leukemia; over 100 µM in the assay on NCI-H460 lung; over 100 µM in the assay on RPMI-8226 leukemia; over 100 µM in the assay with SF-268 CNS. The TGI with SK-MEL-28 melanoma, with SK-MEL-5 melanoma, in the assay with SK-OV-3 ovarian and in the assay on SN12C renal was over 100 µM throughout.
Consider `C/C(CCOC1CCCCO1)=C(\C)[Si](C)(C)C` (stereo unspecified), for which the TGI with HCC-2998 colon, with HT29 colon, in the assay on K-562 leukemia, with NCI-H460 lung, in the assay with RPMI-8226 leukemia and in the assay on SF-268 CNS was over 100 µM each time. The TGI in the assay with SK-MEL-28 melanoma, with SK-MEL-5 melanoma and with SN12C renal was over 100 µM in each case.
Regarding `CCOC(=O)c1csc(NC(=O)CCN(CC)CC)n1`, the TGI with HCC-2998 colon was over 100 µM; in the assay on HT29 colon, 64.6 µM; with K-562 leukemia it was over 100 µM; in the assay with NCI-H460 lung, over 100 µM; with RPMI-8226 leukemia, over 100 µM; in the assay on SK-MEL-28 melanoma, 62 µM. The TGI with SK-MEL-5 melanoma and in the assay on SK-OV-3 ovarian was over 100 µM throughout.
In the case of `O=C1C(Cl)=C(N2CCN(C3=C(Cl)C(=O)c4ccccc4C3=O)CC2)C(=O)c2ccccc21`, the TGI with HCC-2998 colon amounted to 8.35 µM; in the assay on HT29 colon, 5.27 µM; in the assay on NCI-H460 lung, 13.6 µM; with RPMI-8226 leukemia, 14 µM; with SF-268 CNS, 6.1 µM; with SK-MEL-28 melanoma, 3.48 µM. For the same compound, the TGI in the assay on SK-MEL-5 melanoma turned out to be 3.25 µM; in the assay on SK-OV-3 ovarian, 28 µM; in the assay on SN12C renal, 3.09 µM.
In the case of `Oc1ccc(/C=C/c2cc(O)cc(O)c2)cc1`, the TGI with HCC-2998 colon, in the assay on HT29 colon, with NCI-H460 lung, with RPMI-8226 leukemia, with SF-268 CNS and in the assay with SK-MEL-28 melanoma was over 100 µM in each case. The TGI in the assay with SK-OV-3 ovarian and in the assay on SN12C renal was over 100 µM in each case.
Turning to `COC(=O)C1C(C(=O)OC)N(Cc2ccccc2)C(=O)N1Cc1ccccc1` (stereo unspecified), the TGI in the assay on HCC-2998 colon, in the assay with HT29 colon, in the assay with K-562 leukemia, in the assay on NCI-H460 lung, in the assay on RPMI-8226 leukemia and in the assay with SF-268 CNS was over 100 µM throughout. In addition, the TGI in the assay on SK-MEL-28 melanoma, with SK-MEL-5 melanoma, in the assay with SK-OV-3 ovarian and in the assay with SN12C renal was over 100 µM each time.
`C[C@]12CC[C@@H]3c4ccc(O)cc4CC[C@H]3[C@@H]1C/C(=C\c1ccncc1)C2=O`: the TGI is over 100 µM in the assay on HCC-2998 colon; 72.2 µM in the assay with HT29 colon; over 100 µM in the assay on K-562 leukemia; over 100 µM in the assay on NCI-H460 lung; over 100 µM in the assay on RPMI-8226 leukemia; over 100 µM in the assay with SF-268 CNS. In addition, the values for the TGI with SK-MEL-28 melanoma, with SK-MEL-5 melanoma and with SK-OV-3 ovarian were over 100 µM, 27.9 µM and over 100 µM, respectively.
With `CCCc1cc(=O)c2c(C)c3[nH]c4ccc(Cl)cc4c3c(C)c2[nH]1`, the TGI in the assay with HCC-2998 colon worked out at 3.02 µM; in the assay on HT29 colon, 3.31 µM; in the assay on NCI-H460 lung, 3.79 µM; in the assay on SF-268 CNS, 24.1 µM; in the assay with SK-MEL-28 melanoma, 3.14 µM; in the assay with SK-MEL-5 melanoma it was 21.4 µM. In the assay on SN12C renal, this compound came in with a TGI of 5.31 µM.
Turning to `N.N.N.O=[N+]([O-])[O-].O=[N+]([O-])[O-].O=[N+]([O-])[O-].O=[N+]([O-])[O-].[Co+3]`, the TGI in the assay with HT29 colon, in the assay on K-562 leukemia, in the assay with NCI-H460 lung, in the assay with RPMI-8226 leukemia, in the assay on SF-268 CNS and in the assay on SK-MEL-28 melanoma was over 100 µM throughout. In addition, the TGI in the assay with SK-MEL-5 melanoma, in the assay on SK-OV-3 ovarian and with SN12C renal was over 100 µM in each case.
Take `COc1ccc2[nH]c(O)c(/C=c3/cc4c(c(-c5cc(OC)c(OC)c(OC)c5)n3)=Nc3ccccc3-4)c2c1`: the GI50 with HCC-2998 colon is 34 µM; in the assay on HT29 colon, 2.41 µM; with K-562 leukemia, 4.14 µM; with NCI-H460 lung it was 4.07 µM; with RPMI-8226 leukemia, 1.89 µM; in the assay on SF-268 CNS, 46.4 µM. For the same compound, the GI50 with SK-MEL-28 melanoma is 26 µM; in the assay on SK-MEL-5 melanoma, 2.47 µM; with SK-OV-3 ovarian, over 100 µM; in the assay on SN12C renal, 61.2 µM. Also, the TGI in the assay on HCC-2998 colon is over 100 µM; with HT29 colon it was 7.05 µM; in the assay with K-562 leukemia, over 100 µM; with NCI-H460 lung it was over 100 µM; with RPMI-8226 leukemia, 11.5 µM; in the assay with SF-268 CNS, over 100 µM. Also, the TGI in the assay on SK-MEL-28 melanoma was over 100 µM; in the assay on SK-MEL-5 melanoma, 77.8 µM; in the assay on SK-OV-3 ovarian, over 100 µM; in the assay with SN12C renal, over 100 µM.
Take `C#CCCCCC#Cc1ccccc1C(=O)OC`: the TGI in the assay with HCC-2998 colon was over 100 µM; with HT29 colon it was over 100 µM; in the assay with K-562 leukemia, 67.4 µM; in the assay on NCI-H460 lung, over 100 µM; in the assay with RPMI-8226 leukemia, 41.5 µM; in the assay on SF-268 CNS, over 100 µM. In addition, the TGI with SK-MEL-28 melanoma, with SK-MEL-5 melanoma, in the assay on SK-OV-3 ovarian and in the assay on SN12C renal was over 100 µM each time.
In the case of `NC(N)=NS(=O)(=O)c1ccc(NCc2c3ccccc3[n+]([O-])c3ccccc23)cc1`, the TGI was over 100 µM in the assay with HCC-2998 colon; over 100 µM in the assay with HT29 colon; over 100 µM with K-562 leukemia; over 100 µM in the assay with NCI-H460 lung; 74.3 µM in the assay on RPMI-8226 leukemia; 86.6 µM with SF-268 CNS. Also, the TGI was 62.5 µM in the assay with SK-MEL-28 melanoma, 33.5 µM with SK-MEL-5 melanoma, over 100 µM with SK-OV-3 ovarian and over 100 µM with SN12C renal.
On to `CC(C)OP(=O)(OC(C)C)c1c(Nc2ccccc2)n[nH]c1N`, for which the TGI in the assay on HCC-2998 colon, with HT29 colon, in the assay with K-562 leukemia, with NCI-H460 lung, in the assay with RPMI-8226 leukemia and with SF-268 CNS was over 100 µM each time. Also, the TGI with SK-MEL-28 melanoma, with SK-MEL-5 melanoma and in the assay on SK-OV-3 ovarian was over 100 µM throughout.
Turning to `O=C(O)CC/C(=N\Nc1nsc2ccccc12)c1ccccc1`, the TGI was 90.8 µM in the assay with HCC-2998 colon; over 100 µM in the assay on HT29 colon; over 100 µM in the assay on K-562 leukemia; over 100 µM in the assay on NCI-H460 lung; 49.6 µM in the assay on RPMI-8226 leukemia; over 100 µM in the assay on SF-268 CNS. The TGI in the assay with SK-MEL-28 melanoma, with SK-MEL-5 melanoma and in the assay with SN12C renal was over 100 µM each time.
`CCN1c2ccccc2-n2c(C)nnc2-c2c1n[nH]c2-c1ccccc1`: the TGI in the assay on HT29 colon is over 100 µM; in the assay on K-562 leukemia it was 26 µM; in the assay on NCI-H460 lung it was over 100 µM; in the assay with RPMI-8226 leukemia, 82.3 µM; in the assay on SF-268 CNS, over 100 µM; in the assay on SK-MEL-28 melanoma, over 100 µM. The TGI in the assay on SK-MEL-5 melanoma is 35.3 µM; with SK-OV-3 ovarian it was over 100 µM; in the assay with SN12C renal it was 81.6 µM.
